Test [1] deals with HCT116 MTAP-deleted cells. The test is described as follows: Cell viability assay (CellTiter-Glo, 7 days), HCT116 MTAP-deleted. To be noted: Homo sapiens, HCT-116, 168 h. For orientation: In ATP-based viability assays light output follows the ATP content of the culture.
The test system of test [2] is SDMA signal (PRMT5 inhibition) in HCT116 MTAP-deleted cells. The test is described as follows: Symmetric di-methyl arginine image-based high content screen assay (SDMA assay), HCT116 MTAP-deleted. Format: cell-based. Conditions: SDMA assay; for EC50: Homo sapiens, HCT-116, 72 h, 3 days of treatment, cell line not given, taken as HCT116 MTAP-deleted, read-out: EC50 (SDMA assay); for EC50 selectivity (SDMA assay): taken as HCT116 WT versus MTAP-deleted. The procedure: Symmetric di-methyl arginine image-based high content screen assay (SDMA assay) was performed in HCT116 WT and HCT116 MTAP-deleted cell lines to measure Symmetric Di-methyl Arginine (SDMA) signal reduction after selective PRMT5 inhibition in the MTAP-deleted cells.
Briefly, the same compound plates were generated as mentioned in the previous section of Cell viability assay on Day −1.
On Day 3, the cells were fixed by adding 45 μl of 8% neutralized formalin solution to each well using EL460 liquid dispenser 5 μl cassette and the cells were incubated for 30 minutes at room temperature. The formalin solution was washed off with […] phosphate buffered saline (dPBS), the 0.1% Triton X-100 solution in dPBS was used to permeabilize the cells for 15 minutes at room temperature. The triton solution was aspirated, 50 μl of Odyssey Blocking buffer+0.05% Tween20 was added and the plate was incubated at room temperature for 30 minutes.
The blocking solution was removed, a 20 μl of SDMA antibody (Cell Signaling Technology, Cat no. 13222) diluted 1:500 in Odyssey Blocking buffer+0.05% Tween20 was added and the plate was incubated at 4° C. overnight. Next day, the primary SDME antibody solution was washed from each well three times with 0.05% Tween20 in dPBS (PBST).
A 30 μl of the secondary antibody, a Goat anti-Rabbit Alexa Fluor Plus 488 (Invitrogen, Cat no. PIA32731) was diluted 1:500 in Odyssey Blocking buffer+0.05% Tween20 and the plate was incubated for 1.5 hours in dark at room temperature. The secondary antibody solution was removed, 30 μl of 5 mg/ml DAPI solution diluted 1:2000 in dPBS was added and the plate was incubated for 30 minutes in dark at room temperature. The DAPI solution was aspirated and the wells were washed six times with dPBS.
The SDMA signal and DAPI signal per cell were counted using a Cellomics CX7 LZR instrument reading under 488 and 405 nm laser, respectively. The SDMA signal was quantified by mean average intensity per cell from Alexa Fluor Plus 488 after the cell was defined with DAPI.

In test [1], `Cn1ncc2c(N)nc3ccc(C(=O)N(Cc4nc5cc(Cl)ccc5s4)N4CCCCC4=O)cc3c21` [Example 93, 4-amino-N-[(5-chloro-1,3-benzothiazol-2-yl)methyl]-1-methyl-N-(2-oxo-1-piperidyl)pyrazolo[4,3-c]quinoline-8-carboxamide] yielded a CC50 of less than 100 nM. Moreover, in test [2], the EC50 is less than 1 nM and the “EC50 selectivity (SDMA assay)” value is 226.
For `CN(C(=O)C12COC(C1)C2)N(Cc1ccc(C(F)(F)F)cn1)C(=O)c1ccc2nc(N)c3cnn(C)c3c2c1` [Example 186, 4-amino-N′,1-dimethyl-N′-(2-oxabicyclo[2.1.1]hexane-4-carbonyl)-N-[[5-(trifluoromethyl)-2-pyridyl]methyl]pyrazolo[4,3-c]quinoline-8-carbohydrazide] the same measures were 100 to 1000 nM, 1 to 5 nM and 66.
Take `Cn1ncc2c(N)nc3ccc(C(=O)N(Cc4cn5ccccc5n4)N4Cc5ccccc5C4=O)cc3c21` [Example 139, 4-amino-N-(imidazo[1,2-a]pyridin-2-ylmethyl)-1-methyl-N-(1-oxoisoindolin-2-yl)pyrazolo[4,3-c]quinoline-8-carboxamide]: the half-maximal cytotoxic concentration (CC50) in test [1] is less than 100 nM. Also, in test [2], the EC50 was greater than 5 nM and the “EC50 selectivity (SDMA assay)” value amounted to 20.
The matching figures for `CCn1c(CN(C(=O)c2ccc3nc(N)c4cnn(C)c4c3c2)N2CCCC2=O)nc2ccccc21` [Example 83, 4-Amino-N-[(1-ethylbenzimidazol-2-yl)methyl]-1-methyl-N-(2-oxopyrrolidin-1-yl)pyrazolo[4,3-c]quinoline-8-carboxamide]: 100 to 1000 nM, 1 to 5 nM and 242.
The matching figures for `C[C@@H]1CN(N(Cc2ccc(C(F)(F)F)cn2)C(=O)c2ccc3nc(N)c4cnn(C)c4c3c2)C(=O)O1` (single isomer, unassigned) [Example 9]: less than 100 nM, less than 1 nM and 180.
For `CN(C(=O)C12CC(CO1)C2)N(Cc1ccc(C(F)(F)F)cn1)C(=O)c1ccc2nc(N)c3cnn(C)c3c2c1` [Example 185, 4-amino-N′,1-dimethyl-N′-(2-oxabicyclo[2.1.1]hexane-1-carbonyl)-N-[[5-(trifluoromethyl)-2-pyridyl]methyl]pyrazolo[4,3-c]quinoline-8-carbohydrazide] the same measures were less than 100 nM, less than 1 nM and 33.
In test [1], `CC(=O)N(C)N(Cc1ccn(-c2cccc(F)c2)n1)C(=O)c1ccc2nc(N)c3cnn(C)c3c2c1` [Example 435, N′-acetyl-4-amino-N-((1-(3-fluorophenyl)-1H-pyrazol-3-yl)methyl)-N′,1-dimethyl-1H-pyrazolo[4,3-c]quinoline-8-carbohydrazide] displayed a half-maximal cytotoxic concentration (CC50) of less than 100 nM.
In the case of `CC(=O)N(C)N(Cc1c(F)cc(-c2cnn(C(F)(F)F)c2)cc1F)C(=O)c1ccc2nc(N)c3cnn(C)c3c2c1` [Example 378, N′-acetyl-4-amino-N-[[2,6-difluoro-4-[1-(trifluoromethyl)pyrazol-4-yl]phenyl]methyl]-N′,1-dimethyl-pyrazolo[4,3-c]quinoline-8-carbohydrazide], in test [1], the 50% cytotoxic concentration (CC50) was less than 100 nM.
On the same count and under the same terms, the same measure for `CC(=O)N(C)N(Cc1ccn(-c2ccc(F)cc2F)n1)C(=O)c1ccc2nc(N)c3cnn(C)c3c2c1` [Example 440, N′-acetyl-4-amino-N-((1-(2,4-difluorophenyl)-1H-pyrazol-3-yl)methyl)-N′,1-dimethyl-1H-pyrazolo[4,3-c]quinoline-8-carbohydrazide]: less than 100 nM.
On the same count and under the same terms, the same measure for `CN(C(=O)C1CC1)N(Cc1cc2cc(Cl)ccn2n1)C(=O)c1ccc2nc(N)c3cnn(C)c3c2c1` [Example 401]: less than 100 nM.
Same read-out and setting: next, `CC(=O)N(C)N(Cc1ccc(-c2cnn(C)c2)cc1F)C(=O)c1ccc2nc(N)c3cnn(C)c3c2c1` [Example 373, N′-acetyl-4-amino-N-[[2-fluoro-4-(1-methylpyrazol-4-yl)phenyl]methyl]-N′,1-dimethyl-pyrazolo[4,3-c]quinoline-8-carbohydrazide]: less than 100 nM; `CN(C(=O)C1CC1)N(Cc1ccc(-c2cnn(C(F)F)c2)cn1)C(=O)c1ccc2nc(N)c3cnn(C)c3c2c1` [Example 353, 4-amino-N′-(cyclopropanecarbonyl)-N-((5-(1-(difluoromethyl)-1H-pyrazol-4-yl)pyridin-2-yl)methyl)-N′,1-dimethyl-1H-pyrazolo[4,3-c]quinoline-8-carbohydrazide]: less than 100 nM.
In test [1], `[2H]C([2H])([2H])N(C(=O)C1CC1)N(Cc1ncc(C(F)(F)F)cc1F)C(=O)c1ccc2nc(N)c3cnn(C)c3c2c1` [Example 268, 4-amino-N′-(cyclopropanecarbonyl)-N-((3-fluoro-5-(trifluoromethyl)pyridin-2-yl)methyl)-1-methyl-N′-(methyl-d3)-1H-pyrazolo[4,3-c]quinoline-8-carbohydrazide] displayed a CC50 of less than 100 nM.
For the compound `Cn1ncc2c(N)nc3cc(F)c(C(=O)N(Cc4ccc(C(F)(F)F)cn4)N4CCOC5(CC5)C4)cc3c21` [Example 284, 4-amino-7-fluoro-1-methyl-N-(4-oxa-7-azaspiro[2.5]octan-7-yl)-N-((5-(trifluoromethyl)pyridin-2-yl)methyl)-1H-pyrazolo[4,3-c]quinoline-8-carboxamide], the 50% cytotoxic concentration (CC50) in test [1] is less than 100 nM.
Same read-out and setting: the same measure for `CC(=O)N(C)N(Cc1ccc(-c2cncs2)cc1F)C(=O)c1ccc2nc(N)c3cnn(C)c3c2c1` [Example 245, N′-acetyl-4-amino-N-(2-fluoro-4-(thiazol-5-yl)benzyl)-N′,1-dimethyl-1H-pyrazolo[4,3-c]quinoline-8-carbohydrazide]: less than 100 nM.
Still for that read-out and setting: next, `Cn1ncc2c(N)nc3ccc(C(=O)N(Cc4ccc(C(F)(F)F)cn4)N4CCOC(C(F)(F)F)C4)cc3c21` (centres unmarked) [Example 428, 4-amino-1-methyl-N-(2-(trifluoromethyl)morpholino)-N-((5-(trifluoromethyl)pyridin-2-yl)methyl)-1H-pyrazolo[4,3-c]quinoline-8-carboxamide]: 100 to 1000 nM; `CN(C(=O)C1CC1)N(Cc1ccc(C2CC2)cn1)C(=O)c1ccc2nc(N)c3cnn(C)c3c2c1` [Example 357, 4-amino-N′-(cyclopropanecarbonyl)-N-((5-cyclopropylpyridin-2-yl)methyl)-N′,1-dimethyl-1H-pyrazolo[4,3-c]quinoline-8-carbohydrazide]: less than 100 nM; `COc1c(CN(C(=O)c2ccc3nc(N)c4cnn(C)c4c3c2)N(C)C(=O)C2CC2)ccc(Cl)c1F` [Example 313, 4-amino-N-(4-chloro-3-fluoro-2-methoxybenzyl)-N′-(cyclopropanecarbonyl)-N′,1-dimethyl-1H-pyrazolo[4,3-c]quinoline-8-carbohydrazide]: less than 100 nM.
With `CN(C(=O)C1CC1)N(Cc1ccc2c(c1)OC(F)(F)O2)C(=O)c1cc2c(cc1F)nc(N)c1cnn(C)c12` [Example 282, 4-amino-N′-(cyclopropanecarbonyl)-N-((2,2-difluorobenzo[d][1,3]dioxol-5-yl)methyl)-7-fluoro-N′,1-dimethyl-1H-pyrazolo[4,3-c]quinoline-8-carbohydrazide], the CC50 in test [1] was less than 100 nM.
As to `CC(=O)N(C)N(Cc1ccc2c(c1)c1ccccc1n2C)C(=O)c1ccc2nc(N)c3cnn(C)c3c2c1` [Example 412, N′-acetyl-4-amino-N′,1-dimethyl-N-((9-methyl-9H-carbazol-3-yl)methyl)-1H-pyrazolo[4,3-c]quinoline-8-carbohydrazide], in test [1], the 50% cytotoxic concentration (CC50) lay in the range of 100 to 1000 nM.
On the same count and under the same terms, the same measure for `CN(C(=O)C1CC1(F)F)N(Cc1ccc(C(F)(F)F)cn1)C(=O)c1ccc2nc(N)c3cnn(C)c3c2c1` (centres unmarked) [Example 358, 4-amino-N′-(2,2-difluorocyclopropane-1-carbonyl)-N′,1-dimethyl-N-((5-(trifluoromethyl)pyridin-2-yl)methyl)-1H-pyrazolo[4,3-c]quinoline-8-carbohydrazide]: less than 100 nM; for `CC(=O)N(C)N(Cc1ccc(-c2cnn(C(F)(F)F)c2)cc1Cl)C(=O)c1ccc2nc(N)c3cnn(C)c3c2c1` [Example 377, N′-acetyl-4-amino-N-[[2-chloro-4-[1-(trifluoromethyl)pyrazol-4-yl]phenyl]methyl]-N′,1-dimethyl-pyrazolo[4,3-c]quinoline-8-carbohydrazide]: less than 100 nM; for `CC(=O)N(C)N(Cc1ccc(-c2ccc(C(F)(F)F)s2)cc1F)C(=O)c1ccc2nc(N)c3cnn(C)c3c2c1` [Example 237, N′-acetyl-4-amino-N-(2-fluoro-4-(5-(trifluoromethyl)thiophen-2-yl)benzyl)-N′,1-dimethyl-1H-pyrazolo[4,3-c]quinoline-8-carbohydrazide]: less than 100 nM.

For orientation: CC50 means the concentration giving 50% cytotoxicity. Lower therefore signals harm at low concentration. The term EC50 denotes the concentration giving half of the maximal effect.

For the origin of these results see patent US20240254118A1, “PRMT5 INHIBITORS AND USES THEREOF” (Gilead Sciences, Inc., priority 2022, published 2024).
